Source: patent US8883798B2, “Pyrimidine compounds inhibiting the formation of nitric oxide and prostaglandin E2, method of production thereof and use thereof” (Ustav Organicke Chemie a Biochemie Akademie Ved CR, V.V.I., priority 2011, dated 2014)

How the values were obtained:
peritoneal cells of mice = assay: Cell viability of mouse peritoneal cells (WST-1 kit); assay type: cell-based; settings: Table 3A, substance 50 μmol·l^−1, 24 h
Outline: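 C57BL/6 mouse peritoneal cells (1×10^6/mL) cultured 24 h with compounds at 50 μmol·l^−1. Viability read with WST-1 tetrazolium salt and expressed as percent of untreated control cells (100%).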

[1] = tested on: production of prostaglandin E2 (PGE2); assay: Production of prostaglandin E2 (PGE2) in cultures of mouse peritoneal cells stimulated with LPS (ELISA kit); assay type: cell-based, mice; settings: Table 3A, substance 50 μmol·l^−1, 6 h
Outline: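 C57BL/6 mouse peritoneal cells (3×10^6/mL) stimulated with LPS (10 ng/mL). PGE2 measured by ELISA.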

HUVEC = HUVEC cell proliferation (XTT assay); assay type: cell-based, human; settings: 10 to 50 μmol/L, 8 hours
[2] = tested on: production of nitric oxide (NO); assay: Production of nitric oxide (NO) in cultures of mouse peritoneal cells stimulated with IFN-γ plus LPS (Griess reagent); assay type: cell-based, mice; settings: Table 3A; substance 50 μmol·l^−1; IFN-g plus LPS; 24 h
Outline: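 C57BL/6 mouse peritoneal cells (2×10^6/mL) stimulated with IFN-γ (5000 pg/mL) plus LPS (100 pg/mL), compounds at 50 μmol·l^−1. Nitrite measured by Griess reagent after 24 h, expressed as % of stimulated control (set 100%); IC50 is concentration reducing NO by 50%.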

[3] = tested on: human umbilical vein endothelial cells (HUVEC); assay: Tube formation assay of HUVEC on Matrigel (in vitro angiogenesis); assay type: cell-based; settings: 8 h
Text: This so called “Tube Formation Assay” is a method based on the ability of endothelial cells to form capillary-like tubular structures when cultured on Matrigel™ (a gel of basement membrane extract—their natural substrate). The process of capillary-like tube formation includes endothelial cell attachment, migration, and differentiation into tubules. In this experiment, treatment with tested compounds started at the time of seeding HUVEC onto Matrigel and the extent of tubule development was observed after an 8 h time period. Disruption of tube formation was then assessed through observation of the tubular network and direct comparison to solvent-only controls. The quantitative and qualitative measurement of tubular network complexity was performed using web-based S.CORE imaging software and expressed by means of number of tubes, their total length, quality, number of branching points, etc. All these parameters were integrated into “tube formation index” which corresponds to the degree of complexity of tubular network. […] At a 10 μmol/L concentration, compound 23 reduced tube formation by >90%. […] Apoptosis in HUVECs (at ˜70% confluency) treated with or without varying concentrations (relevant for the tube formation assay) of tested substances was assessed by a combination of Annexin V and JC-1 staining. After 8 h of these treatments, cells were collected, and the cell population undergoing apoptosis was identified by double-parameter flow cytometry using annexin V and the vital dye propidium iodide (PI). Mitochondrial membrane potential in treated endothelial cells was measured using the lypophilic probe JC-1, which aggregates in healthy mitochondria and fluoresces red, but diffuses in the cytoplasm and fluoresces green upon mitochondrial damage. In both cases, quantification of apoptotic cells were conducted in BD FACSDiva software.

[4] = tested on: Salmonella typhimurium TA 98 and TA 100, Escherichia coli WP2 uvrA
Protocol: With compound 28, its possible mutagenicity (genotoxicity) was assessed using the standard bacterial reverse mutation test. According to Council Regulation (ES) No. 440/2008, stipulating the test methods according to the European Parliament and Council regulation (ES), the method used was B.13/14, Mutagenicity—Reverse Mutation Test Using Bacteria, which is described in the same way also in the OECD Test Guideline No. 471.
[…] The experiments were conducted without using metabolic activation and after activation with supernatant S9 from […] livers and with mixtures of cofactors (NADP and glucoso-6-phosphate) to determine the mutagenicity of the metabolic products of the compound tested. Supernatant S9 was prepared according to the literature [Mutat. Res. 113, 173-215, 1983].
The principle of the test is to detect possible revertants created by reverse mutation, which would be induced in the bacterial culture by the tested compound. Specially constructed bacterial strains are used, carrying mutations in the place for his (trp), which are not capable of forming colonies on the minimum plates without histidine or tryptophan. […] Mutagenic potential is given by the growing number of revertants in the influenced groups in comparison with a negative control, and/or in dependence on the growing number of revertants on the dose of the tested compound.
Bacterial testers, types Salmonella typhimurium TA 98 (CCM 3811) and Escherichia coli WP2 uvrA (CCM 4751), were acquired from the Czech Collection of Microorganisms of Masaryk University, Brno and the strain Salmonella typhimurium TA100 (CIP 103796, lot No. 1008) from the Biological Resource Center, Institut Pasteur in Paris (CRBIP).

| Structure (SMILES) | Cell viability in % of the controls (peritoneal cells of mice) | Production of prostaglandins in % of the controls [1] | HUVEC cell proliferation (HUVEC) | Production of nitric oxide in % of the controls [2] | Effect on tube formation ([3]; 10 μmol/L) | Effect on tube formation ([3]; 25 μmol/L) | Capillary tube formation [3] | Reduction of tube formation ([3]; 10 μmol/L) | Concentration from which antiangiogenic activity was apparent [3] | Mutagenicity (reverse mutation) ([4]; all strains, all tested concentrations, with and without metabolic activation) | Incomplete tube formation ([3]; 25 μmol/L) | Number of revertants, positive control for −MA I ([4]; arrangement of FIG. 5 (TA 100), without metabolic activation, 1.5 μg) |
| --- | --- | --- | --- | --- | --- | --- | --- | --- | --- | --- | --- | --- |
| CCCCc1c(Cl)nc(N=CN(C)C)nc1Cl [Substance 19] | 123.21 ± 21.43 % of the controls | 14.93 ± 3.11 % of the controls | did not influence HUVEC cell proliferation | 2.99 ± 0.53 % of the controls | no inhibitory activity was detectable | Partial differentiation | inhibited capillary tube formation in a dose dependent manner |  |  |  |  |  |
| CN(C)C=Nc1nc(Cl)c(Cc2ccccc2)c(Cl)n1 [Substance 23] | 96.24 ± 11.9 % of the controls | 3.05 ± 1.26 % of the controls | did not influence HUVEC cell proliferation | 4.41 ± 0.59 % of the controls | tube disruption |  | inhibited capillary tube formation in a dose dependent manner | > 90% | ≥ 5 µmol/L |  |  |  |
| Nc1nc(Cl)c(Cc2ccccc2)c(Cl)n1 [Substance 34] | 105.92 ± 20.65 % of the controls | 3.71 ± 2.00 % of the controls |  | 50.57 ± 9.31 % of the controls |  |  |  |  |  | non-mutagenous |  |  |
| CC(C)c1c(Cl)nc(NC=O)nc1Cl [Substance 53] | 60.02 ± 0.29 % of the controls | 8.57 ± 0.99 % of the controls | did not influence HUVEC cell proliferation | 0.70 ± 0.22 % of the controls | only limited effect |  | inhibited capillary tube formation in a dose dependent manner |  |  |  | ~46% |  |
| [N-]=[N+]=[N-] [sodium azide, reference compound] |  |  |  |  |  |  |  |  |  |  |  | > 500 |
